In patent US4563527A, “Amidine compounds” (Torii & Co., Ltd., priority 1984, dated 1986):
Like-named read-outs stand apart in the source and are kept apart here.

Experiments:
[1] = target: T1, Trypsin (Bos taurus, UniProt P00760); assay: Anti-trypsin activity (hydrolysis of TAME); assay type: biochemical; details: molar concentration inhibiting 50% of TAME hydrolysis; read-out: ID50 trypsin
T1 sequence (P00760 24-246): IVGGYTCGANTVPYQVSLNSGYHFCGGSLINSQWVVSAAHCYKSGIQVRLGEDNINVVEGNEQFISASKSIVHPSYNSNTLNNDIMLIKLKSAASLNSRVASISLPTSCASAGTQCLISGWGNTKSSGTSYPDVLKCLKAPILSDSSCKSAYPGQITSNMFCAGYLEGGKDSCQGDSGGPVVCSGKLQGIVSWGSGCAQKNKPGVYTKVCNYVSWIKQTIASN
Procedure: (§1) The anti-trypsin, anti-plasmin, anti-kallikrein and anti-thrombin activities were determined according to the method of Muramatsu et al. [M. Muramatus, T. Onishi, S. Makino, Y. Hayashi and S. Fujii, J. of Biochem., 58, 214 (1965)]. The data summarized in Table 1 are expressed in terms of molar concentration (ID50) of the test compound which inhibits 50% of the activity of each enzyme to hydrolyze TAME (tosylalginine methyl ester). The compound No. corresponds to the compound number shown in Examples.

[2] = target: Plasmin (Homo sapiens, UniProt P00747); assay: Anti-plasmin activity (hydrolysis of TAME); assay type: biochemical; details: molar concentration inhibiting 50% of TAME hydrolysis; read-out: ID50 plasmin
Procedure: The anti-trypsin, anti-plasmin, anti-kallikrein and anti-thrombin activities were determined according to the method of Muramatsu et al. [M. Muramatus, T. Onishi, S. Makino, Y. Hayashi and S. Fujii, J. of Biochem., 58, 214 (1965)]. […] The compound No. corresponds to the compound number shown in Examples.

[3] = tested on: Kallikrein; assay: Anti-kallikrein activity (hydrolysis of TAME); assay type: biochemical; details: for IC50: molar concentration inhibiting 50% of TAME hydrolysis, read-out: ID50 kallikrein
Procedure: as §1

[4] = target: Thrombin (Homo sapiens, UniProt P00734); assay: biochemical; details: molar concentration inhibiting 50% of TAME hydrolysis; read-out: ID50 thrombin
[5] = target: T2, C1r (Homo sapiens, UniProt P00736); assay: biochemical; details: read-out: ID50 C1r (Anti-C1 activity)
T2 sequence (P00736 464-705 limits assumed): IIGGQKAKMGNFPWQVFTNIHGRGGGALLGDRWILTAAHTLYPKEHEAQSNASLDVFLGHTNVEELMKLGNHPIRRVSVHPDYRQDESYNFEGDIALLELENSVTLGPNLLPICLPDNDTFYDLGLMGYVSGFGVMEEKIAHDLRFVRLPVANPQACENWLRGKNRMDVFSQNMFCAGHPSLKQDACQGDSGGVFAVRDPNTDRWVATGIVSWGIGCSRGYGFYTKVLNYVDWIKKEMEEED
T2 sequence (P00736 18-463 partner limits assumed): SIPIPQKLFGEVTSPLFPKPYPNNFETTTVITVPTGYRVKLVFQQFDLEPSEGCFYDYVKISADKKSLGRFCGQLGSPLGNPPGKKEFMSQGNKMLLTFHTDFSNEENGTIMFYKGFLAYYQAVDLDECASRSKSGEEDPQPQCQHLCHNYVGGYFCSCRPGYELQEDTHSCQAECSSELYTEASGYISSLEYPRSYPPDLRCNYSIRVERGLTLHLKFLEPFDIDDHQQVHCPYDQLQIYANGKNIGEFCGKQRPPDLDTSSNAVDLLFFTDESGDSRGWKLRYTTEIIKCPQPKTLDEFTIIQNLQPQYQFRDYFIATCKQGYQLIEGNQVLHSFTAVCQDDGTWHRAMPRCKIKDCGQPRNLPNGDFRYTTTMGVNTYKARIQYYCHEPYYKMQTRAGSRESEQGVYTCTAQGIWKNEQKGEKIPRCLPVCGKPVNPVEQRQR

[6] = target: T3, C1s (Homo sapiens, UniProt P09871); assay: Anti-C1s activity (hydrolysis of ATEE); assay type: biochemical; details: molar concentration inhibiting 50% of ATEE hydrolysis; read-out: ID50 C1s (Anti-C1 activity)
T3 sequence (P09871 438-688 limits assumed): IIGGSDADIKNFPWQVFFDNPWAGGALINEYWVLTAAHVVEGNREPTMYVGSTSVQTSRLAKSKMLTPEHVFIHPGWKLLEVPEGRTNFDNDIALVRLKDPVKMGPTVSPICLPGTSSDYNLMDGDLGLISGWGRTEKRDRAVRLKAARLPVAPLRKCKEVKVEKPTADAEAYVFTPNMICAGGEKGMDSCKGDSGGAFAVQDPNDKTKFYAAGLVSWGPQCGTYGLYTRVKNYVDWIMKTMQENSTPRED
T3 sequence (P09871 16-437 partner limits assumed): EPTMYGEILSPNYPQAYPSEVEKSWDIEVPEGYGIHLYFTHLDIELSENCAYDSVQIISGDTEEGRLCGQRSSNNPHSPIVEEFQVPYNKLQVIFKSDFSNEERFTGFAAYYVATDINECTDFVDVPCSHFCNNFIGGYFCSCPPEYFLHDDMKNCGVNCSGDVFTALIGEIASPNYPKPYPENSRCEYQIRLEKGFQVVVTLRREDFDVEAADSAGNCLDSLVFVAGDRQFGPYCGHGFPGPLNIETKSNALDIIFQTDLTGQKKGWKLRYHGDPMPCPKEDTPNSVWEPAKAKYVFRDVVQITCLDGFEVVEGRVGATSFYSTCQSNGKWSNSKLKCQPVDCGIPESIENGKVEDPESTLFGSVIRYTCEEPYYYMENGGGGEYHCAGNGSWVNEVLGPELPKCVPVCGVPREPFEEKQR
Procedure: The anti-C1 esterase (C1r, C1s) activity was determined according to the method of Okamura et al. [K. Okamura, M. Muramatsu and B. Fujii, Biochem. Biophys. Acta, 295, 252-257 (1973)]. The inhibition of complement mediated hemolysis was determined according to the method of Baker et al. [B. R. Baker and E. H. Erickson, J. Med. Chem. 12, 408-414 (1969)]. The figures in Table 2 have the following meanings:
C1s: Molar concentration of the test compound which inhibits 50% of the ability of C1s to hydrolyse ATEE (acetyltyrosin ethyl ester) (ID50).

[7] = tested on: complement; assay: Inhibition of complement mediated hemolysis; assay type: cell-based
Procedure: The complement mediated hemolysis is widely used as a means to determine the titration of complement. The principle of this method is based on the fact that hemolysis is caused by the activation of complement, when the latter is added to a complex (immune complex) of erythrocytes and the antibody thereof. The degree of hemolysis varies in proportion to the amount of complement added. Therefore, when a known amount of complement admixed with a C1 esterase inhibitor is used, the hemolysis must be suppressed in proportion to the inhibitory activity.
The anti-C1 esterase (C1r, C1s) activity was determined according to the method of Okamura et al. [K. Okamura, M. Muramatsu and B. Fujii, Biochem. Biophys. […] The figures in Table 2 have the following meanings: […]

[8] = molar concentration inhibiting 50% of AAME hydrolysis

Chain of Plasmin (P00747 581-810 limits assumed, species assumed): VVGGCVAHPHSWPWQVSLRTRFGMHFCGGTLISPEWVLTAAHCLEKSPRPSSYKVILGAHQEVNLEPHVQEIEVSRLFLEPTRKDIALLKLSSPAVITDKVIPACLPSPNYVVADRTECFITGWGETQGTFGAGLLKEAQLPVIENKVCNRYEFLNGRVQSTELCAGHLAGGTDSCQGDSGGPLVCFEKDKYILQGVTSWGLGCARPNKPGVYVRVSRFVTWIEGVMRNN
Chain of Plasmin (P00747 97-580 partner limits assumed, species assumed): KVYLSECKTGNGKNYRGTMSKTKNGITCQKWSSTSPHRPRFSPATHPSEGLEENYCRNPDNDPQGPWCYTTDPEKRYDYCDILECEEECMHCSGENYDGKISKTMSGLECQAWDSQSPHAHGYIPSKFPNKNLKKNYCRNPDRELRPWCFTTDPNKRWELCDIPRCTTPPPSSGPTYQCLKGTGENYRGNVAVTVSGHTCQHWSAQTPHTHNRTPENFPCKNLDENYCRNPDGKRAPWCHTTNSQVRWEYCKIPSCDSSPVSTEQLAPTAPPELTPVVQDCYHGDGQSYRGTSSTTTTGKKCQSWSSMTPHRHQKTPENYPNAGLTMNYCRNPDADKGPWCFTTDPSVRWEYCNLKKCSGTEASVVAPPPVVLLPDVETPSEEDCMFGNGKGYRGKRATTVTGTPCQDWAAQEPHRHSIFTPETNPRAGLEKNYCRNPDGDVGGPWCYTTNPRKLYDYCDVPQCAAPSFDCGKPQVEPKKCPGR

SMILES	IC50 [1] [µM]	IC50 [2] [µM]	percentage inhibition of kallikrein ([3]; figure in parentheses, at 1×10^-5 M, TAME) [%]	IC50 [4] [µM]	IC50 [5, 8] [µM]	IC50 [6] [µM]	Inhibition of complement mediated hemolysis (%) ([7]; 1 × 10^-5)	Inhibition of complement mediated hemolysis (%) ([7]; 1 × 10^-6)	Inhibition of complement mediated hemolysis (%) ([7]; 1 × 10^-7)	IC50 [3] [µM]	IC50 [5] [µM]
N=C(N)NCCc1ccc(C(=O)Oc2ccc3cc(C(=N)N)ccc3c2)o1 [compound 9]	0.9	6	47	1	0.4	3	100	100	94		
N=C(N)c1ccc2cc(OC(=O)c3ccc(NC4=NCCN4)o3)ccc2c1 [compound 10]	0.04	3		0.2	5	0.3	100	100	91	0.4	
N=C(N)c1ccc2cc(OC(=O)c3ccc(CNC4=NCCN4)o3)ccc2c1 [compound 11]	3	2		0.4	0.5	0.5	100	100	43	0.4	
CN(C)CC(=O)NCc1ccc(C(=O)Oc2ccc3cc(C(=N)N)ccc3c2)o1 [compound 14]	1	2		0.7	0.7	0.3	100	100	28	0.5	
N=C(N)Nc1ccc(C(=O)NCc2ccc(C(=O)Oc3ccc4cc(C(=N)N)ccc4c3)o2)cc1 [compound 15]	0.2	0.3		0.6		0.4	100	100	99	0.4	0.3
N=C(N)c1ccc2cc(OC(=O)c3ccc(CNC(=O)CCNC(=O)OCc4ccccc4)o3)ccc2c1 [compound 20]							100	98	43		
N=C(N)c1ccc2cc(OC(=O)c3ccc(CNC(=O)CCN)o3)ccc2c1 [compound 34]		2		0.5	0.5	0.5	100	100	58	0.3	
